Data taken from patent publication US20220127297A1, “Novel Antibacterial 3"-Derivatives Of 4,6-Disubstituted 2,5-Dideoxystreptamine Aminoglycoside Antibiotics” (AGILeBiotics B.V., priority 2018, published 2022).
Converted amounts (≈) assume the structure as drawn.

What was measured:
[1] = test system: E. coli (APH(3′)IIIa); test: MIC 50, broth micro-dilution, E. coli expressing APH(3′)IIIa; format: cell-based, Escherichia coli; conditions: Escherichia coli, ATCC25922, ATCC25922 harboring plasmid encoding APH(3′)IIIa
Procedure: (§1) Plasmid transformation. Approximately 500 ng of the pET-9b(+) (Cat. No. 69432-3, Merck), pAT21-1 (provided by Prof. Dr. Patrice Courvalin, M.D., Pasteur Institute, France; prepared according to Trieu-Cuot et. al, Mol. Gen. Genet. 198(2), 348 (1985)), pBluescript::AAC(6′)-Ie/APH(2″)-Ia (provided by Prof. Dr. Sergei Vakulenko, M.D., University of Notre Dame, Ind., USA; prepared according to S. B. Vakulenko et. al., J. Biol. Chem. 287 (52), 43262 (2012)), pBlue_lpp_aacC3_rrnC and pSET152 (Cat. No. PVT3395, Life Science Market; prepared according to Bierman et al., Gene 116 (1), 43 (1992)) plasmids, encoding APH(3′)-Ia (SEQ ID NO:2), APH(3′)-IIIa (SEQ ID NO:3), AAC(6′)Ie-APH(2″)-Ia (SEQ ID NO:4), AAC(3)-III (SEQ ID NO:1), and AAC(3)-IV (SEQ ID NO:5) respectively, were individually incubated in a vial of competent cells for 15 min on ice. The cells were subsequently heated to 42° C. for 90 s, and cooled on ice for 1 min. After addition of 900 μL LB, the cells were incubated for 1 h at 37° C. and 200 rpm. Cells were plated on LB-agar supplemented with 50 μg/mL KanaA and incubated for 18 h at 37° C. The next day, a single colony was inoculated in 5 mL LB supplemented with 50 μg/mL and grown for 18 h at 37° C. and 200 rpm. A 200 μL sample of each culture was diluted with 200 μL of 40% v/v glycerol in water, and stored at −80° C. The plasmid was purified from the remaining culture using the Plasmid Miniprep kit. Plasmid DNA was investigated by Eurofins Genomics (Germany) to confirm the identity of the aminoglycoside resistance genes.
(§2) 3.1 Against E. coli Strains
(§3) Tested reference compounds. Amikacin sulfate (Cat. No. 01693, Chem-Impex), Gentamicin sulfate (Cat. No. G4918, Sigma Aldrich).
(§4) Microbial strains. E. coli ATCC 25922, E. coli ATCC 25922/pET-9b(+), E. coli ATCC 25922/pAT21-1, E. coli ATCC 25922/pBluescript::AAC(6′)-Ie/APH(2″)-Ia, E. coli ATCC 25922/pBlue_lpp_aacC3_rrnC, E. coli ATCC 25922/pSET152.
(§5) Culture media and equipment. BBL™ Mueller Hinton Broth 2 (Lot. BCBW1143, Cat. No. 70192, Sigma); Kanamycin A (Cat. No. A1493, AppliChem); 96-well deep well plate, 1 mL (Cat. No. 0030506.200, Eppendorf); Plate lids (Cat. No. 0030131.525, Eppendorf); 96-well plate, F-bottom (Cat. No. 781602, Brand; Incubator, Infors Multitron Pro); Laminar flow (Heraeus KS12); UV/VIS meter (Eppendorf BioPhotometer Plus); Platereader (Tecan Sunrise).
(§6) Compound preparation. Compounds were prepared in MH2 media at a concentration of 5 mM and stored at 4° C. For testing, solutions of 128 μM were prepared in MH2. Out of these working solutions, 400 μL was transferred to wells in the first column of 96-well deep well plates. Each compound was transferred in triplicate. Plates were previously filled with 200 μL of MH2 media in all wells except for the wells in the first column. After compound and antibiotic addition, the compounds were serial two-fold diluted by transferring 200 μL from the first to the second column, then from the second to the third column and so on. Finally, 200 μL was removed from the last column.
(§7) Inoculum preparation. Microorganisms used were all revived from 20% glycerol (40% v/v glycerol in water was diluted with MH2) storage at −80° C. by inoculating them in 5 mL MH2. inoculums of E. coli containing a plasmid were selected for by adding 50 μg/mL KanaA. The Inoculums were grown to an optical density (measured by UV/Vis spectroscopy) of 0.6-0.8 at 600 nm. Out of these suspensions, actual inoculums were prepared by diluting them to an optical density (OD) of 0.1 in MH2 media. From these inoculums, 200 μL was transferred to each well, resulting in a final compound concentration range of 64 μM-31.3 nM. All plates were incubated at 900 rpm and 70% rH for 18 h at 37° C.
(§8) MIC determination. After 18 h of growth, 200 μL was transferred to a 96-well F-bottom plate. The optical density was determined by a plate reader at 600 nm, with 10 s shaking before reading. Triplicate measurements were averaged, and a growth curve was plotted in Microsoft Excel. […]

[2] = test system: E. coli (APH(3′)Ia); test: MIC 50, broth micro-dilution, E. coli expressing APH(3′)Ia; format: cell-based, Escherichia coli; conditions: Escherichia coli, ATCC25922, ATCC25922 harboring plasmid encoding APH(3′)Ia
Procedure: as §1, §2, §3, §4, §5, §6, §7, §8

[3] = test system: E. coli (AAC(3)III); test: MIC 50, broth micro-dilution, E. coli expressing AAC(3)III; format: cell-based, Escherichia coli; conditions: Escherichia coli, ATCC25922, ATCC25922 harboring plasmid encoding AAC(3)III
Text: Cloning resistant enzymes. An Escherichia coli codon optimized gene encoding AAC(3)-III (GenBank acc.nr. X55652.1; SEQ ID NO:1), including a promoter and terminator sequence, was synthesized by Integrated DNA Technologies, Belgium. The synthesized gene and pBluescript II KS(+) plasmid were digested using the restriction enzymes SacI and SalI, and purified from a 1% TBE-agarose gel using the illustra Gel Band purification kit. The purified linear plasmid and T4 DNA ligase were used to ligate aac(3)-III under control of the constitutive lipoprotein Ipp promoter and ribosomal RNA rrnC terminator, resulting in pBlue_Ipp_aacC3_rrnC.
as §1, §2, §3, §4, §5, §6
Inoculum preparation. Microorganisms used were all revived from 20% glycerol (40% v/v glycerol in water was diluted with MH2) storage at −80° C. by inoculating them in 5 mL MH2. inoculums of E. coli containing a plasmid were selected for by adding 50 μg/mL KanaA.

[4] = test system: E. coli (AAC(3)IV); test: MIC 50, broth micro-dilution, E. coli expressing AAC(3)IV; format: cell-based, Escherichia coli; conditions: Escherichia coli, ATCC25922, ATCC25922 harboring plasmid encoding AAC(3)IV
Procedure: as §1, §2, §3, §4, §5, §6, §7, §8

[5] = test system: E. coli (AAC(6′)Ie-APH(2″)Ia); test: MIC 50, broth micro-dilution, E. coli expressing AAC(6′)Ie-APH(2″)Ia; format: cell-based, Escherichia coli; conditions: Escherichia coli, ATCC25922, ATCC25922 harboring plasmid encoding AAC(6′)Ie-APH(2″)Ia
Procedure: as §1, §2, §3, §4, §5, §6, §7, §8

[6] = test system: E. coli ATCC25922 strain; test: MIC 50, broth micro-dilution, wild-type Escherichia coli; format: cell-based; conditions: Escherichia coli, ATCC25922, 18 h, MH2, 18 h
Text: as §2, §3, §4, §5, §6, §7
MIC determination. After 18 h of growth, 200 μL was transferred to a 96-well F-bottom plate. The optical density was determined by a plate reader at 600 nm, with 10 s shaking before reading. Triplicate measurements were averaged, and a growth curve was plotted in Microsoft Excel. The first column in which the growth reached half the value of maximum growth was determined as the MIC50 value for that particular compound.
MIC50. The MIC50 of a compound was assigned at which the bacterial growth reached half the value of maximum growth.

N=C(N)NC1[C@@H](O)C(OC2[C@@H](F)[C@H](O[C@H]3OC(CN)[C@@H](O)CC3N)C(N)C[C@H]2NC(=O)[C@@H](F)CCN)O[C@H](CO)[C@H]1O (stereo partly drawn) [ABX5034, Tobra-(AFB)-F-Gua]
MIC50 [1]: 0.5 to 1 µM (≈ 0.307 to 0.615 µg/mL) | MIC50 [2]: 1 µM (≈ 0.615 µg/mL) | MIC50 [3]: 0.5 to 1 µM (≈ 0.307 to 0.615 µg/mL) | MIC50 [4]: 2 to 4 µM (≈ 1.23 to 2.46 µg/mL) | MIC50 [5]: 1 µM (≈ 0.615 µg/mL) | MIC50 [6]: 1 µM (≈ 0.615 µg/mL)
